# Reference: PubChem BioAssay AID720585 (Broad Institute, 2013)
# Activity calls are given as the source filed them.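 How the source made its calls: active means fitted curve falling to -50% or lower, with AC50 no more than twice the sample's top valid dose; inactive means the rest, including changes in the wrong direction.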
# Tested on: not listed separately
# Test: A549 lung cell cytotoxicity, dose response, cytotoxicity control, CellTiter-Glo luminescence, dry powder samples (AID 720585)
# Settings: A549 viability, CellTiter-Glo ATP luminescence, 72 h; at 26 µM (top of the series)
row,SMILES,"activity change, negative = cytotoxicity"
1,O=C(Nc1cccnc1)c1cnn2c(C(F)F)cc(C3CC3)nc12,-2.75% (inactive)
2,COc1cccc(C(=O)N2CCN(c3ccc(C(C)=O)cc3)CC2)c1,-3.71% (inactive)
3,Cc1cc(C)n2nc(C(=O)Nc3cccnc3)cc2n1,0.879% (inactive)
4,CC(=O)c1ccc(N2CCN(C(=O)c3cccc(F)c3)CC2)cc1,-1.71% (inactive)
5,O=C(O)CC/C(=C\c1ccccc1[N+](=O)[O-])c1nc2ccccc2s1,-7.05% (inactive)
6,O=C(Nc1ccccc1)N1CCN(c2ccccc2)CC1,-0.224% (inactive)
7,COc1cccc(NC(=O)CCC2CCN(C(=O)c3ccc(C(C)=O)s3)CC2)c1,-3.35% (inactive)
8,Cc1ccc(/C=C(\CCC(=O)O)c2nc3ccccc3s2)cc1[N+](=O)[O-],-3.79% (inactive)
9,O=C(Nc1cccnc1)c1cc2nc(-c3cccs3)cc(C(F)(F)F)n2n1,-3.55% (inactive)
10,COC(=O)c1c(C(=O)OC)c(-c2cccc(F)c2)n2c1CS(=O)C2 (centres undefined),2.89% (inactive)
11,Cc1nc2ccc(NC(=O)N3CCN(c4ccccc4)CC3)cc2s1,0.35% (inactive)
12,COc1ccc(C(=O)N2CCN(c3ccc(C(C)=O)cc3)CC2)cc1,13.7% (inactive)
13,O=C(c1ccc2c(c1)OCO2)N1CCN(c2ccc(F)cc2)CC1,-0.413% (inactive)
14,Cc1ccc(-c2cc(C(F)(F)F)n3nc(C(=O)Nc4cccnc4)cc3n2)cc1,-7.78% (inactive)
15,O=C(Nc1ccc(Cl)cc1)c1cc2nc(C3CC3)cc(C(F)(F)F)n2n1,12.6% (inactive)
16,CCOC(=O)N1CCN(C(=O)Nc2ccc3snnc3c2)CC1,-11% (inactive)
17,O=C(Nc1ccc2snnc2c1)N1CCCCC1,-9.31% (inactive)
18,CC(=O)c1ccc(N2CCN(C(=O)c3ccc4ncsc4c3)CC2)cc1,2.15% (inactive)
19,CC(=O)c1ccc(N2CCN(C(=O)c3ccc(Br)cc3)CC2)c(F)c1,-2.87% (inactive)
20,Cc1ccc(NC(=O)N2CCN(c3ccccc3)CC2)cc1,-5.15% (inactive)
21,CC(=O)c1ccc(N2CCN(C(=O)c3ccc(Cl)cc3)CC2)cc1,3.76% (inactive)
22,O=C(O)CC/C(=C\c1ccc([N+](=O)[O-])cc1)c1nc2ccccc2s1,5.24% (inactive)
23,O=C(Nc1ccc2snnc2c1)N1CCOCC1,9.86% (inactive)
24,CC(=O)c1ccc(N2CCN(C(=O)c3ccc(C)cc3)CC2)cc1,-8.81% (inactive)
25,CC(=O)c1ccc(N2CCN(C(=O)c3cccc(Cl)c3)CC2)cc1,4.97% (inactive)
26,CCN(CC)c1ccc2cc(C(=O)c3cccs3)c(=O)oc2c1,7.58% (inactive)
27,O=C(c1ccc2c(c1)OCO2)N1CCN(c2ccc(Cl)cc2)CC1,-6.96% (inactive)

row,SMILES,"activity change, negative = cytotoxicity"
1,Cc1cccc(/C=C(\CCC(=O)O)c2nc3ccccc3s2)c1,-7.62% (inactive)
2,COc1ccc(-c2cc(C(F)(F)F)n3nc(C(=O)Nc4cccnc4)cc3n2)cc1,5.08% (inactive)
3,Cc1ccc(/C=C(\CC(=O)O)c2nc3ccccc3s2)cc1[N+](=O)[O-],7.43% (inactive)
4,COc1ccc(N2CCN(C(=O)c3ccc4c(c3)OCO4)CC2)cc1,-3.29% (inactive)
5,Cc1nc2cc(NC(=O)N3CCN(c4ccccc4)CC3)ccc2o1,-4.28% (inactive)
6,COc1ccc(NC(=O)N2CCN(c3ccccc3)CC2)cc1,-3.72% (inactive)
7,O=C(Nc1ccncc1)c1cc2nc(C3CC3)cc(C(F)F)n2n1,2.81% (inactive)
8,O=C(Nc1cccc(F)c1)N1CCN(c2ccccc2)CC1,5.56% (inactive)
9,COc1cc(/C=C/C(=O)Nc2cccnc2)cc(OC)c1OC,11.1% (inactive)
10,Cc1ccc(/C=C(\CCC(=O)O)c2nc3ccccc3s2)cc1,-2.14% (inactive)
11,CC(=O)c1ccc(N2CCN(C(=O)c3ccc4c(c3)OCO4)CC2)cc1,-12.8% (inactive)
12,O=C(Nc1cccnc1)c1cnn2c(C(F)(F)F)cc(-c3ccccc3)nc12,-2.52% (inactive)
13,O=C(c1ccc2c(c1)OCO2)N1CCN(Cc2ccccc2)CC1,9.39% (inactive)
14,COc1cccc(NC(=O)N2CCN(c3ccccc3)CC2)c1,8.71% (inactive)
15,O=C(Nc1ccc(F)cc1)N1CCN(c2ccccc2)CC1,-4.84% (inactive)
16,CC(=O)c1ccc(N2CCN(C(=O)c3cccnc3)CC2)cc1,0.559% (inactive)
17,O=C(c1ccc2c(c1)OCO2)N1CCN(c2ccccc2)CC1,-3.52% (inactive)
18,CC(=O)c1ccc(N2CCN(C(=O)c3ccc4c(c3)OCCO4)CC2)cc1,-10.1% (inactive)
19,O=C(Nc1ccc2snnc2c1)N1CCN(c2ccccc2)CC1,-13.4% (inactive)
20,O=C(Nc1ccc2[nH]ccc2c1)N1CCN(c2ccccc2)CC1,-0.377% (inactive)
21,CC(=O)c1ccc(N2CCN(Cc3ccc4c(c3)OCO4)CC2)cc1,-4.27% (inactive)
22,O=C(Nc1cccc(Cl)c1)N1CCN(c2ccccc2)CC1,-1.38% (inactive)
23,CC(=O)c1ccc(N2CCN(C(=O)c3ccc(F)cc3)CC2)cc1,-0.22% (inactive)
24,CC(C)(C)c1ccc(C(=O)N2CCN(c3ccc4c(c3)OCO4)CC2)cc1,-3.25% (inactive)
25,O=C(COc1ccc2ccc(=O)oc2c1)N1CCN(c2ccc(F)cc2)CC1,-15.6% (inactive)
26,O=C(Nc1cccnc1)N1CCN(c2ccccc2)CC1,-2.28% (inactive)
27,CCc1ccc(C(=O)N2CCN(Cc3ccc4c(c3)OCO4)CC2)cc1,-0.901% (inactive)

# Tested on: A549 viability, CellTiter-Glo ATP luminescence, 72 h
# Test: as above
# Settings: not given
row,SMILES,AC50
1,Cc1cc(C)n2nc(C(=O)Nc3cccnc3)nc2n1,> 26 µM (inactive)
2,CCc1ccc(N2CCN(C(=O)c3ccc4c(c3)OCO4)CC2)cc1,> 26 µM (inactive)
3,CC(=O)c1ccc(N2CCN(C(=O)c3ccccc3)CC2)cc1,> 26 µM (inactive)
4,Cc1ccccc1/C=C(\CCC(=O)O)c1nc2ccccc2s1,> 26 µM (inactive)
5,O=C(Nc1ccc(Cl)c(-c2nc3ccccc3[nH]2)c1)c1cccnc1,> 26 µM (inactive)
